How the values were obtained:
[1] = molecular target: TANK binding kinase (TBK1) (Homo sapiens (Human), UniProt Q9UHD2); assay: TBK1 enzyme assay (384-well flashplate kinase assay); type: biochemical; conditions: 0.6 nM TBK1, 10 μM ATP, 30° C., 120 min
IKKε = IKKε (Homo sapiens (Human), UniProt Q14164); assay: IKKε kinase assay (384-well flashplate assay); type: biochemical; conditions: 1 nM IKKε, 10 μM ATP, 30° C., 2 hours; read-out: IKKε enzyme assay IC50
Method: Test for the Inhibition of IKKε
IKKε—Kinase Assay (IKKepsilon)
The kinase assay is performed as 384-well flashplate assay (for example for Topcount measurement).
1 nM IKKε, 800 nM biotinylated IκBα(19-42) peptide (Biotin-C6-C6-[…]) and 10 μM ATP (spiked with 0.3 μCi of ^33P-ATP/well) are incubated at 30° C. for 2 hours in a total volume of 50 μl (10 mM MOPS, 10 mM Mg acetate, 0.1 mM EGTA, 1 mM dithiothreitol, 0.02% of Brij35, 0.1% of BSA, 0.1% of BioStab, pH 7.5) with or without test compound. The reaction is stopped using 25 μl of 200 mM EDTA. After 30 min at room temperature, the liquid is removed, and each well is washed three times with 100 μl of 0.9% sodium chloride solution. Non-specific reaction is determined in the presence of 3 μM MSC2119074 (BX-795). The radioactivity is measured using a Topcount (PerkinElmer). The results (for example IC50 values) are calculated using program tools provided by the IT Department (for example AssayExplorer, Symyx).

Sequence of TANK binding kinase (TBK1) (Q9UHD2 whole entry): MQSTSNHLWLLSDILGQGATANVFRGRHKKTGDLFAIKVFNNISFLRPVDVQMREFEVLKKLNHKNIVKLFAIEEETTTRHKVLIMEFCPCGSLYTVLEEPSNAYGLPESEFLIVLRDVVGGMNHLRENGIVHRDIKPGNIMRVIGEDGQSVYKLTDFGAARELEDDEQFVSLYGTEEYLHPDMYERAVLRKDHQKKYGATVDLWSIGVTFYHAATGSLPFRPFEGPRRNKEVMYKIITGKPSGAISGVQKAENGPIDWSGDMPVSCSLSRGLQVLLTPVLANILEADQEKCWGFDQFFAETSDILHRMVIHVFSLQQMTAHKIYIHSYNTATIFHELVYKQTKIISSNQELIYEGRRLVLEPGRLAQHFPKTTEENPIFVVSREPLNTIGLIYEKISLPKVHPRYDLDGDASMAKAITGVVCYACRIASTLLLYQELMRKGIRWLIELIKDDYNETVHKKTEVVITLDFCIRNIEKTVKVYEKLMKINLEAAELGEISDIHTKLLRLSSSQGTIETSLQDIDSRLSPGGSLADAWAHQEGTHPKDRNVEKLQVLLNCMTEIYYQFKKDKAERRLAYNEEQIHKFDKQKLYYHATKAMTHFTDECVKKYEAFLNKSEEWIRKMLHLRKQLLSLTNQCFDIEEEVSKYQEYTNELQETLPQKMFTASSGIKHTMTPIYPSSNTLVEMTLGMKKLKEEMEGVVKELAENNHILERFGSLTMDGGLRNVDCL
Sequence of IKKε (Q14164 whole entry): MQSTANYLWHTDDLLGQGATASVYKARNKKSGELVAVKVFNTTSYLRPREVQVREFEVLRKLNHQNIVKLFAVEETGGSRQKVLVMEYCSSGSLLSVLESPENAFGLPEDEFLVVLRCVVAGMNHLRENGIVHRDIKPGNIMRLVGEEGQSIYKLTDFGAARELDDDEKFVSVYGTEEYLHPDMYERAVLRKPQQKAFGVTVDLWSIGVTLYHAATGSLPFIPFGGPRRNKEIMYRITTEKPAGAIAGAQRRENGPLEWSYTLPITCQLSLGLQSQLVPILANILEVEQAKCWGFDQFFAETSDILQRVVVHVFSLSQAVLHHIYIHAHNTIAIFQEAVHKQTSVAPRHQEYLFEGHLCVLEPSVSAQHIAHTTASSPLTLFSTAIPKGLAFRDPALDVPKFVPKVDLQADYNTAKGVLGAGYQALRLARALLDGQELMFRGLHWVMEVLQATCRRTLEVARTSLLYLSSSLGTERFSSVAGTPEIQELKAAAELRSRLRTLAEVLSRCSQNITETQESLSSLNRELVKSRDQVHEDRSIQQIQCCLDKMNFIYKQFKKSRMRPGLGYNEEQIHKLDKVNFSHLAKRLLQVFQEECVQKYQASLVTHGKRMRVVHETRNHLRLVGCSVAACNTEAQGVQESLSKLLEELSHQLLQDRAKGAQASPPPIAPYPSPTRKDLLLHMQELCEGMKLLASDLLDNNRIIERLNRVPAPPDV

Question: Which results are given for `N#Cc1cc(-c2ccnc(Nc3ccc(C(F)(F)F)cn3)c2)ccc1OC1CCOCC1` [Compound A13, 2-(Tetrahydropyran-4-yloxy)-5-[2-(5-trifluoromethylpyridin-2-ylamino)pyridin-4-yl]-benzonitrile]?
Answer: IC50 [1]: 310 nM; IC50 (IKKε): 530 nM

Question: How did the IC50 [1] turn out when `N#Cc1cc(-c2ccnc(Nc3ncccn3)c2)ccc1OC1CCOCC1` [Compound A14, 5-[2-(Pyrimidin-2-ylamino)pyridin-4-yl]-2-(tetrahydropyran-4-yloxy)benzonitrile] was run?
Answer: 670 nM

Question: What about the IC50 (IKKε) of the same molecule?
Answer: 1200 nM

Question: How did the IC50 [1] turn out when `N#Cc1cc(-c2ccnc(Nc3ccc(CO)cn3)c2)ccc1OC1CCOCC1` [Compound A15, 5-[2-(5-Hydroxymethylpyridin-2-ylamino)pyridin-4-yl]-2-(tetrahydropyran-4-yloxy)benzonitrile] was run?
Answer: 14 nM

Question: And the IC50 (IKKε)?
Answer: 21 nM

Question: Which IC50 [1] does the source give for `N#Cc1cc(-c2ccnc(Nc3cnn(C4CCNCC4)c3)c2)ccc1OC1CCOCC1` [Compound A16, 5-[2-(1-Piperidin-4-yl-1H-pyrazol-4-ylamino)pyridin-4-yl]-2-(tetrahydropyran-4-yloxy)benzonitrile] here?
Answer: 71 nM

Question: What about the IC50 (IKKε) of the same molecule?
Answer: 7 nM

Question: `N#Cc1cc(-c2ccnc(Nc3cc(CO)ccn3)c2)ccc1OC1CCOCC1` [Compound A18, 5-[2-(4-Hydroxymethylpyridin-2-ylamino)pyridin-4-yl]-2-(tetrahydropyran-4-yloxy)benzonitrile] was tested. Which IC50 [1] did it give?
Answer: 8 nM

Question: What about the IC50 (IKKε) of the same molecule?
Answer: 13 nM

Question: For `N#Cc1cc(-c2ccnc(Nc3ccc4oc(C(N)=O)cc4c3)c2)ccc1OC1CCOCC1` [Compound A19, 5-{4-[3-Cyano-4-(tetrahydropyran-4-yloxy)phenyl]pyridin-2-ylamino}benzofuran-2-carboxamide], which IC50 [1] is on record?
Answer: 1900 nM

Question: What about the IC50 (IKKε) of the same molecule?
Answer: 390 nM

Question: Which results are given for `N#Cc1cc(-c2ccnc(Nc3cnn(C4CNC4)c3)c2)ccc1OC1CCOCC1` [Compound A25, 5-[2-(1-Azetidin-3-yl-1H-pyrazol-4-ylamino)pyridin-4-yl]-2-(tetrahydropyran-4-yloxy)benzonitrile]?
Answer: IC50 [1]: 290 nM; IC50 (IKKε): 67 nM

Question: What does the source list for `N#Cc1cc(-c2ccnc(Nc3cnn(C[C@H]4C[C@@H]4CO)c3)c2)ccc1OC1CCOCC1` [Compound A26, 5-{2-[1-((1S,2S)-2-Hydroxymethylcyclopropylmethyl)-1H-pyrazol-4-ylamino]-pyridin-4-yl}-2-(tetrahydropyran-4-yloxy)benzonitrile]?
Answer: IC50 [1]: 18 nM; IC50 (IKKε): 27 nM

Question: How did the IC50 [1] turn out when `N#Cc1cc(-c2ccnc(Nc3cnn(CC4CCOC4)c3)c2)ccc1OC1CCOCC1` (centres unmarked) [Compound A27, 5-{2-[1-(Tetrahydrofuran-3-ylmethyl)-1H-pyrazol-4-ylamino]pyridin-4-yl}-2-(tetrahydropyran-4-yloxy)benzonitrile] was run?
Answer: 85 nM

Question: And the IC50 (IKKε)?
Answer: 77 nM

Question: With `N#Cc1cc(-c2ccnc(Nc3cnn(CCC4CCN(C(=O)CN)CC4)c3)c2)ccc1OC1CCOCC1` [Compound A30, 5-[2-(1-{2-[1-(2-Aminoacetyl)piperidin-4-yl]ethyl}-1H-pyrazol-4-ylamino)pyridin-4-yl]-2-(tetrahydropyran-4-yloxy)benzonitrile] as the molecule, how does the IC50 [1] read?
Answer: 42 nM

Question: And the IC50 (IKKε)?
Answer: 45 nM

Question: For `CC(C)(C)c1cc(Nc2cc(-c3ccc(OC4CCOCC4)c(C#N)c3)ccn2)on1` [Compound A31, 5-[2-(3-tert-Butylisoxazol-5-ylamino)pyridin-4-yl]-2-(tetrahydropyran-4-yloxy)benzonitrile], which IC50 [1] is on record?
Answer: 860 nM

Question: What about the IC50 (IKKε) of the same molecule?
Answer: 850 nM

Question: With `N#Cc1cc(-c2ccnc(Nc3ncc4c(n3)CCNC4)c2)ccc1OC1CCOCC1` [Compound A36, 2-(Tetrahydropyran-4-yloxy)-5-[2-(5,6,7,8-tetrahydropyrido[4,3-d]pyrimidin-2-ylamino)pyridin-4-yl]benzonitrile] as the molecule, how does the IC50 (IKKε) read?
Answer: 140 nM

Question: What does the source list for `N#Cc1cc(-c2ccnc(Nc3ccc(C(N)=O)cn3)c2)ccc1OC1CCOCC1` [Compound A37, 6-{4-[3-Cyano-4-(tetrahydropyran-4-yloxy)phenyl]pyridin-2-ylamino}nicotinamide]?
Answer: IC50 [1]: 32 nM; IC50 (IKKε): 21 nM

Question: With `N#Cc1cc(-c2ccnc(Nc3cnn(CCn4cccn4)c3)c2)ccc1OC1CCOCC1` [Compound A38, 5-{2-[1-(2-Pyrazol-1-ylethyl)-1H-pyrazol-4-ylamino]pyridin-4-yl}-2-(tetrahydropyran-4-yloxy)benzonitrile] as the molecule, how does the IC50 [1] read?
Answer: 460 nM

Question: And the IC50 (IKKε)?
Answer: 320 nM

Question: With `N#Cc1cc(-c2ccnc(Nc3cnn(CCN4CCOCC4)c3)n2)ccc1OC1CCOCC1` [Compound A39, 5-{2-[1-(2-Morpholin-4-ylethyl)-1H-pyrazol-4-ylamino]pyrimidin-4-yl}-2-(tetrahydropyran-4-yloxy)benzonitrile] as the molecule, how does the IC50 [1] read?
Answer: 16 nM

Question: And the IC50 (IKKε)?
Answer: 25 nM

Question: With `N#Cc1cc(-c2ccnc(Nc3cnn(C4CCNC4)c3)n2)ccc1OC1CCOCC1` (centres unmarked) [Compound A40, 5-[2-(1-Pyrrolidin-3-yl-1H-pyrazol-4-ylamino)pyrimidin-4-yl]-2-(tetrahydropyran-4-yloxy)benzonitrile] as the molecule, how does the IC50 [1] read?
Answer: 7 nM

Question: And the IC50 (IKKε)?
Answer: 5 nM

Question: With `N#Cc1cc(-c2ccnc(Nc3cnn(CC4CCOC4)c3)n2)ccc1OC1CCOCC1` (centres unmarked) [Compound A41, 5-{2-[1-(Tetrahydrofuran-3-ylmethyl)-1H-pyrazol-4-ylamino]pyrimidin-4-yl}-2-(tetrahydropyran-4-yloxy)benzonitrile] as the molecule, how does the IC50 [1] read?
Answer: 12 nM

Question: And the IC50 (IKKε)?
Answer: 25 nM

Question: What does the source list for `N#Cc1cc(-c2ccnc(Nc3ccc4oc(C(N)=O)cc4c3)n2)ccc1OC1CCOCC1` [Compound A42, 5-{4-[3-Cyano-4-(tetrahydropyran-4-yloxy)phenyl]pyrimidin-2-ylamino}benzofuran-2-carboxamide]?
Answer: IC50 [1]: 10 nM; IC50 (IKKε): 15 nM

Question: `N#Cc1cc(-c2ccnc(Nc3cnn(CCn4cccn4)c3)n2)ccc1OC1CCOCC1` [Compound A43, 5-{2-[1-(2-Pyrazol-1-ylethyl)-1H-pyrazol-4-ylamino]pyrimidin-4-yl}-2-(tetrahydropyran-4-yloxy)benzonitrile] was tested. Which IC50 [1] did it give?
Answer: 70 nM

Question: What about the IC50 (IKKε) of the same molecule?
Answer: 65 nM

Question: For `N#Cc1cc(-c2ccnc(Nc3cnn(CC(F)F)c3)n2)ccc1OC1CCOCC1` [Compound A44, 5-{2-[1-(2,2-Difluoroethyl)-1H-pyrazol-4-ylamino]pyrimidin-4-yl}-2-(tetrahydropyran-4-yloxy)benzonitrile], which IC50 [1] is on record?
Answer: 5 nM

Question: And the IC50 (IKKε)?
Answer: 10 nM

Question: What does the source list for `N#Cc1cc(-c2ccnc(Nc3cnn(CCC4CCNCC4)c3)n2)ccc1OC1CCOCC1` [Compound A45, 5-{2-[1-(2-Piperidin-4-ylethyl)-1H-pyrazol-4-ylamino]pyrimidin-4-yl}-2-(tetrahydropyran-4-yloxy)benzonitrile]?
Answer: IC50 [1]: 2 nM; IC50 (IKKε): 2 nM

Question: With `N#Cc1cc(-c2ccnc(Nc3cc(C(=O)O)ccn3)c2)ccc1OC1CCOCC1` [Compound A65, 2-{4-[3-cyano-4-(tetrahydropyran-4-yloxy)phenyl]pyridin-2-ylamino}isonicotinic acid] as the molecule, how does the IC50 [1] read?
Answer: 170 nM

Question: And the IC50 (IKKε)?
Answer: 120 nM

Question: Which results are given for `Cn1nc(Nc2nccc(-c3ccc(OC4CCOCC4)c(C#N)c3)n2)ccc1=O` [Compound A68, 5-[2-(1-methyl-6-oxo-1,6-dihydropyridazin-3-ylamino)pyrimidin-4-yl]-2-(tetrahydropyran-4-yloxy)benzonitrile]?
Answer: IC50 [1]: 160 nM; IC50 (IKKε): 200 nM

Question: `N#Cc1cc(-c2ccnc(Nc3ccc(=O)[nH]n3)n2)ccc1OC1CCOCC1` [Compound A69, 5-[2-(6-oxo-1,6-dihydropyridazin-3-ylamino)pyrimidin-4-yl]-2-(tetrahydropyran-4-yloxy)benzonitrile] was tested. Which IC50 [1] did it give?
Answer: 1600 nM

Question: And the IC50 (IKKε)?
Answer: 650 nM

Question: `N#Cc1cc(-c2ccnc(Nc3cc(CO)ccn3)n2)ccc1OC1CCOCC1` [Compound A70, 5-[2-(4-hydroxymethylpyridin-2-ylamino)pyrimidin-4-yl]-2-(tetrahydropyran-4-yloxy)benzonitrile] was tested. Which IC50 [1] did it give?
Answer: 180 nM

Question: And the IC50 (IKKε)?
Answer: 140 nM

Question: Which results are given for `N#Cc1cc(-c2ccnc(Nc3cc(N4CCOCC4)ccn3)c2)ccc1OC1CCOCC1` [Compound A82, 5-[2-(4-morpholin-4-ylpyridin-2-ylamino)pyridin-4-yl]-2-(tetrahydropyran-4-yloxy)benzonitrile]?
Answer: IC50 [1]: 230 nM; IC50 (IKKε): 150 nM

Question: Which results are given for `CN1CCN(c2ccnc(Nc3cc(-c4ccc(OC5CCOCC5)c(C#N)c4)ccn3)c2)CC1` [Compound A84, 5-{2-[4-(4-methylpiperazin-1-yl)pyridin-2-ylamino]pyridin-4-yl}-2-(tetrahydropyran-4-yloxy)benzonitrile]?
Answer: IC50 [1]: 350 nM; IC50 (IKKε): 210 nM

Question: What does the source list for `N#Cc1cc(-c2ccnc(Nc3cncc(N4CCOCC4)n3)c2)ccc1OC1CCOCC1` [Compound A85, 5-[2-(6-morpholin-4-ylpyrazin-2-ylamino)pyridin-4-yl]-2-(tetrahydropyran-4-yloxy)benzonitrile]?
Answer: IC50 [1]: 330 nM; IC50 (IKKε): 390 nM

Question: Which results are given for `N#Cc1cc(-c2ccnc(Nc3cc(C4=CCCCO4)ccn3)c2)ccc1OC1CCOCC1` [Compound A86, 5-{2-[4-(5,6-dihydro-4H-pyran-2-yl)pyridin-2-ylamino]pyridin-4-yl}-2-(tetrahydropyran-4-yloxy)benzonitrile]?
Answer: IC50 [1]: 290 nM; IC50 (IKKε): 300 nM

Question: What does the source list for `N#Cc1cc(-c2ccnc(Nc3nc(C4CC4)cs3)n2)ccc1OC1CCOCC1` [Compound A87, 5-[2-(4-cyclopropylthiazol-2-ylamino)pyrimidin-4-yl]-2-(tetrahydropyran-4-yloxy)benzonitrile]?
Answer: IC50 [1]: 300 nM; IC50 (IKKε): 300 nM
